Test [1] concerns the target Ustilago maydis acetyl CoA carboxylase (ACCase) (Ustilago maydis, UniProt A0A0D1DYD5). The experiment in a line: ACCase enzymatic assay (PK/LDH-coupled, NADH OD340). It is filed as biochemical. The procedure:
Ustilago maydis acetyl CoA carboxylase (ACCase) was cloned, expressed, and purified as described (Weatherly et al, Biochem. J., 2004) and the test compounds were tested in a 96-well plate format. Primary in vitro screening consisted of obtaining dose response data at 100, 33, 10, and 1 μM inhibitor. Actives in the primary screen were re-tested to establish IC50 values.
Direct detection of the conversion of acetyl CoA to malonyl CoA by ACCase was not feasible, but during this process ATP is converted to ADP which allowed for detection through a standard reaction coupling with ADP recycling to the oxidation of NADH. Thus, ACCase activity was measured via kinetic OD340 measurements of the conversion of NADH to NAD in a coupled reaction involving the conversion of phosphoenolpyruvate (PEP) to lactate.
The complete 200 ul reaction mixture contained 52.5 mM HEPES (pH8), 2.625 mM MgCl2, 1 mM ATP, 0.525 mM DTT, 11 mM NaHCO3, 1% DMSO with or without inhibitor, lx pyruvate kinase/lactate dehydrogenase (PK/LDH), 0.3 mM NADH, 0.5 mM PEP, and 5 μg ACCase. The reactions were incubated at 30° C. for 10 minutes and then initiated by the addition of 0.33 mM acetyl CoA. The initiated reactions were read immediately via plate reader at OD340 and kinetic readings were acquired every 20 s for 15 minutes while keeping the temperature at 30° C.
A slope of the kinetic curve was determined by using the 2 to 7 minute data which was then calculated as percent inhibition relative to the no inhibitor control.
The primary screens were conducted in duplicate and the IC50's conducted in triplicate. Averages were reported along with standard deviation calculation to generate error bars.
Each plate contained its own controls and consisted of a DMSO only control, 5-fold titration series of soraphen from 2 μM to 3.2 nM, and an ADP coupled reaction control.
In order to effectively screen out non-specific modulators of pyruvate kinase and lactate dehydrogenase (the coupled portion of the reaction), a PK/LDH inhibition test was developed. The complete 200 μl reaction mixture contained 52.5 mM HEPES (pH8), 2.625 mM MgCl2, 0.525 mM DTT, 11 mM NaHCO3, 1% DMSO with or without inhibitor, 1× pyruvate kinase/lactate dehydrogenase (PK/LDH), 0.3 mM NADH, and 0.5 mM PEP. The reactions were incubated at 30° C. for 10 minutes and then initiated by the addition of 66 μM ADP. The initiated reactions were read immediately via plate reader at OD340 and kinetic readings were acquired every 20 s for 15 minutes while remaining at 30° C.
A slope of the kinetic curve was determined by using the 2 to 7 minute data which was then calculated as percent inhibition relative to the no inhibitor control. Those compounds which had no significant PK/LDH inhibition at or above the IC50 in the ACCase assay, were considered to be valid modulators of only ACCase.

A further test concerns Botrytis cinerea. The experiment in a line: Fungal growth inhibition assay, B. cinerea. It is filed as cell-based. The text has this: Spores were isolated from previously sub-cultured plates of Botrytis cinerea, Phytophthora capsici, Fusarium moniliforme, Fusarium viguliforme, Collectotrichum graminicola, and Diplodia maydis. All spores were filtered and collected in a sterile glass bowl to isolate the spores from the mycelia. The isolation and sub-culture plate condition for each pathogen is described below.
Spore isolation for B. cinerea: A 2-3 week old V8 (17%)+CaCO3 (3 g/L)+20 g agar plate was removed from room temperature and the mycelia were treated with 5-10 ml of filter sterilized Triton X 100 (0.05%). The mycelia were scraped to re-suspend the spores. The spores were then collected in a sterile filter bowl containing a fluted piece of filter paper and poured into a conical tube.
After spore isolation, pathogen spores were counted on a hemocytometer to calculate the spores/ml. In 17% V8 liquid media containing 3 g/L CaCO3, isolated spores were diluted to individual concentrations based on the growth curves at 48 hours of each pathogen. […]
In a 96-well plate the spore solution, chemistries, and controls were combined to make the final solution concentrations mentioned above. Upon addition of the chemistry, an OD600 reading was done to assess chemical precipitation. […] Plate readings were repeated at 24 and 48 hrs. […]

[2] abbreviates: Table 1A, read-out: ACCase Inhibitory Activity IC50.
Setting [3] is: Table 1B, racemates and single enantiomers, read-out: ACCase Inhibitory Activity of Racemic Mixtures and Single Enantiomers IC50.

Read-outs that look alike come from different tables or passages of the source.

Chain of Ustilago maydis acetyl CoA carboxylase (ACCase) (A0A0D1DYD5 1-2185): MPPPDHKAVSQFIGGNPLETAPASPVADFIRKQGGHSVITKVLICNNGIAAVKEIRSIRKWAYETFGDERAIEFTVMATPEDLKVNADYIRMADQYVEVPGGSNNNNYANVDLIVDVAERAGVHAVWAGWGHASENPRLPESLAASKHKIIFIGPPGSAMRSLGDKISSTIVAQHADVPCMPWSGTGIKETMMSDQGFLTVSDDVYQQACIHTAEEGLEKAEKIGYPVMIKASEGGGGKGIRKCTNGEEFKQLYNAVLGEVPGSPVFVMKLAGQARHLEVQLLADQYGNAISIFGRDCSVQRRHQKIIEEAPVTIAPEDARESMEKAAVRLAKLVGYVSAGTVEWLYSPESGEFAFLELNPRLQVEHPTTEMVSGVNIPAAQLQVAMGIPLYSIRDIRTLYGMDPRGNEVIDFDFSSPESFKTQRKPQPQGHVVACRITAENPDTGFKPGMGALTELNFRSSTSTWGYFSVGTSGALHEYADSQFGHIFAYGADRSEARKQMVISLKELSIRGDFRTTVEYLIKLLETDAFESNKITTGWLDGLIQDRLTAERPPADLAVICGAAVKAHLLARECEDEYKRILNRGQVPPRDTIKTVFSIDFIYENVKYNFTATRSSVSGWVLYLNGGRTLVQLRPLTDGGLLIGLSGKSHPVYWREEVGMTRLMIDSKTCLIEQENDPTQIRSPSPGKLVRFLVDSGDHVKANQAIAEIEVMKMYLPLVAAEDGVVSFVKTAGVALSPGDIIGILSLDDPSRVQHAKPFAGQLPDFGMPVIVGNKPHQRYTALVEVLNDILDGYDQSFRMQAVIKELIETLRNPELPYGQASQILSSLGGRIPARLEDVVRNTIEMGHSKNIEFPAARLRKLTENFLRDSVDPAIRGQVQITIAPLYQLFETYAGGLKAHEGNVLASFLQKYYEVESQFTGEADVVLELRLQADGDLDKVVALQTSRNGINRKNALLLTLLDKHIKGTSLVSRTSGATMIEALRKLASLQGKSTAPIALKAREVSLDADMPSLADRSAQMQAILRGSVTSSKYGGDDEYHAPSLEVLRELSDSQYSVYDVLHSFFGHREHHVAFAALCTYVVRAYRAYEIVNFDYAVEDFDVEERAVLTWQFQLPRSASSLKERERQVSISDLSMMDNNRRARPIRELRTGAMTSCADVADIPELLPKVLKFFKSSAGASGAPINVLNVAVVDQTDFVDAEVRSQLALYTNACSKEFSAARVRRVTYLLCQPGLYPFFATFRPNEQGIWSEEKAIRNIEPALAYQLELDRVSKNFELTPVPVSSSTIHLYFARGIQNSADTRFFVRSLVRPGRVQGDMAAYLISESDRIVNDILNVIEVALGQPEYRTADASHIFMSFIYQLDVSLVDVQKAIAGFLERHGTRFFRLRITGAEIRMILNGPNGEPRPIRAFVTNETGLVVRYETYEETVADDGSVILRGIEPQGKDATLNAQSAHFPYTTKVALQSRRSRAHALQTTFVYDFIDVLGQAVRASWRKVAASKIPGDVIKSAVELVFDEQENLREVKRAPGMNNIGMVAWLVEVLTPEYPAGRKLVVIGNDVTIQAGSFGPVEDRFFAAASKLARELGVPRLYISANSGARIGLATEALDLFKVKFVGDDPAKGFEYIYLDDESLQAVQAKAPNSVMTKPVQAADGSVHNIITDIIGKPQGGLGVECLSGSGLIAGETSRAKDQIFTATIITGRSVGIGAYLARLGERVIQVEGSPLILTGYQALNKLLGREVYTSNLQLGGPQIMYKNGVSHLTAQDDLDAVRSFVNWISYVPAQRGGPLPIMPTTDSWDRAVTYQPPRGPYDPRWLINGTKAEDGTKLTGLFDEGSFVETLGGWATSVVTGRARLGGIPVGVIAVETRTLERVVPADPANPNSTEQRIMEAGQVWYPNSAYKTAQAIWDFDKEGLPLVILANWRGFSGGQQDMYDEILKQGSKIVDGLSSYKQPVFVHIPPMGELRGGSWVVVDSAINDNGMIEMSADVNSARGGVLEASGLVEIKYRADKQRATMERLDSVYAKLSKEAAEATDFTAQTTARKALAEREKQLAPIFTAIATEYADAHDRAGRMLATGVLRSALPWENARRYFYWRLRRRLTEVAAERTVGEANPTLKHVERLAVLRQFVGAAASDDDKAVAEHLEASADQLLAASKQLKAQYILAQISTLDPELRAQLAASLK

On to “2-((3-cyano-4-(4-methoxyphenyl)-6-(1-oxidothiophen-2-yl)pyridin-2-yl)oxy)-2-phenylacetic acid [Formula Ia-xxviii]”, for which the IC50 in test [1] (setting [2]) turned out to be 196 nM. Moreover, the “B. cinerea % growth inhibition at 48 hours” value in the test on Botrytis cinerea (2 ppm) was determined as 14%; in the test with Botrytis cinerea (10 ppm) it was 27%.

Take `N#Cc1c(-c2cccs2)cc(-c2cccs2)nc1SC(C(=O)O)c1ccccc1` (racemic) [Formula Ia-iii, 2-((3-cyano-4,6-di(thiophen-2-yl)pyridin-2-yl)thio)-2-phenylacetic acid]: the IC50 in test [1] (setting [2]) amounted to 616 nM; in test [1] (setting [3]) it was 439 nM.

As to `COc1ccc(-c2cc(-c3cccs3)nc(SC(C(=O)O)c3ccccc3)c2C#N)cc1` (racemic) [Formula Ia-xiv, 2-((3-cyano-4-(4-methoxyphenyl)-6-(thiophen-2-yl)pyridin-2-yl)thio)-2-phenylacetic acid], in test [1] (setting [2]), the IC50 was 60 nM.

Turning to `N#Cc1c(C(F)(F)F)cc(-c2cccs2)nc1S[C@H](C(=O)O)c1ccccc1` (single isomer, unassigned) [Formula Ia-ii-e2, 2-((3-cyano-6-(thiophen-2-yl)-4-(trifluoromethyl)pyridin-2-yl)thio)-2-phenylacetic acid], the IC50 in test [1] (setting [3]) amounted to 1210 nM.

Broadly, the IC50 is the midpoint of a concentration-inhibition curve.

Values taken from patent US11375716B2, “Acetyl-CoA carboxylase modulators” (Monsanto Technology LLC, priority 2013, dated 2022).
